# Source: paper PMC3671673, “In Vitro Morphological Assessment of Apoptosis Induced by Antiproliferative Constituents from the Rhizomes of Curcuma zedoaria” (Evidence-based Complementary and Alternative Medicine : eCAM, 2013)
# Marks after values point to notes of the source that are not given here.
# Legend:
# [1] = tested on: active caspase-3 in HCT-116 cells; experiment: Flow cytometric active caspase-3 assay, HCT-116; assay type: cell-based, human
# Procedure: Caspases are key mediators of cell death. Caspase-3 activity assay was performed using FITC Active Caspase-3 Apoptosis Kit (BD Pharmingen). These probes bind covalently and irreversibly to the active site of the active caspase heterodimer emitting the green fluorescent signal detected by the FL-1 channel. Briefly, the cancer cells were treated with curzerenone (25, 40, and 50 μg/mL) and alismol (12.5, 25, and 40 μg/mL) for 48 h. The assay was performed based on the manufacturer's protocol. Cells were analyzed using BD Accuri C6 flow cytometry and BD CFlow software.
# [2] = tested on: colon carcinoma cell line (HCT-116); experiment: Neutral red cytotoxicity assay, HCT-116; assay type: cell-based; conditions: Homo sapiens, isolated compounds, 72 h, mean ± SD of three replicates, read-out: IC50 (μg/mL) HCT-116
# Procedure: The human cancer cells KB, Ca Ski, MCF-7, HCT-116, A549, and noncancer human cell lines (MRC-5) were purchased from the American Tissue Culture Collection (ATCC, USA). The supplemented RPMI 1640 media and eagle minimum essential medium (EMEM) were purchased from Sigma-Aldrich, USA. The supplements or antibiotics such as foetal bovine serum (FBS), penicillin/streptomycin (P/S) (100 μg/mL), amphotericin B (50 μg/mL), and accutase were purchased from PAA Laboratories, Austria. Sodium pyruvate (11 mg/mL) purchased from Sigma-Aldrich, USA. The cells were cultured in a SHEL LAB water-jacketed CO2 incubator with […] tissue culture flasks (Nunc, Denmark), which was observed routinely under inverted microscope (Leica DMI3000 B, Germany) for any contamination and seeded into 96-well flat bottom microtiter plate (Nunc, Denmark). The extract or pure compounds was dissolved in dimethyl sulfoxide (DMSO, Molecular Biology Grade, >99.9%) from Sigma-Aldrich, USA. Microtiter plate incubator shaker (LT Biomax 500) was used and absorbance was measured at 540 nm using an ELISA microplate reader (EMax microplate reader of Molecular Devices, USA). MCF-7 and Ca Ski were cultured in RPMI 1640 media supplemented with 10% v/v FBS, P/S, and amphotericin B and MRC-5 in EMEM media with 10% v/v FBS, P/S, amphotericin B, and sodium pyruvate. The cells were cultured in tissue culture flask in 5% CO2 incubator kept at 37°C in a humidified atmosphere and observed routinely under inverted microscope from any contaminations. Each fresh medium was replaced every 2 or 3 days until cell confluence was achieved and the cells were detached by using accutase.
# The in vitro cytotoxicity activity was performed using the neutral red cytotoxicity assay based on the initial protocol as described earlier with some modifications. Briefly, cells were detached from the tissue culture flask with 1.0 mL solution of accutase and PBS solution. The cell pellet was obtained by centrifugation at 1,000 rpm for 5 minutes. The density of the viable cells was counted by 0.4% of trypan blue exclusion in a haemocytometer. Cells were then plated in 96-well microtiter plate (Nunc), at a concentration of 1 × 10^4 cells/well and incubated in a CO2 incubator at 37°C to allow the cells to adhere. After 24 h, the cells were treated with six different concentrations, that is, 1, 10, 25, 50, 75, and 100 μg/mL of each tested agent in three replicates. The plates were incubated for 72 h at 37°C in a 5% CO2 incubator. The untreated cells were regarded as a negative control, whilst cells incubated only with DMSO (0.5%, v/v) were used as a vehicle control. No effect due to the DMSO was observed. Doxorubicin was used as the positive control. After 72 h, the old medium was substituted with fresh medium containing 50 μg/mL neutral red. The 96-well plates were placed into incubator for 3 h. This is to allow the uptake of the vital dye into the lysosomes of viable and undamaged cells. Then, the media was discarded and cells were washed with 200 μL of neutral red washing solution. The dye was eluted from the cells by adding neutral red resorb solution (200 μL). The plate was further incubated for 30 min with rapid agitation on a microtiter plate shaker. The optical density (OD) of the eluted dye was read at 540 nm using a microplate reader. The experiments were conducted in triplicates. […] Cytotoxicity of each test agent is expressed as IC50 value. […]
# HCT-116 cells = experiment: Hoechst 33342/PI dual staining, quantification of apoptotic/necrotic cells, HCT-116; assay type: cell-based, human; conditions: 48 h
# Procedure: (§1) Briefly, cells were grown on tissue culture dishes and treated with or without tested compounds at concentrations of 12.5, 25, 40, and 50 μg/mL. After 48 hours, the cells were harvested and washed with cold PBS to a density of 5 × 10^5 cells/mL. The cells were suspended in Hoechst 33342 solution (10 μg/mL) and were incubated at 37°C in CO2 for 7 minutes. After incubation with Hoechst 33342, the cells were counter stained with propidium iodide (2.5 μg/mL). The samples were maintained in the dark for 15 minutes. After staining, an aliquot of cell suspension was placed on a glass microscope slides. The slides were observed immediately under inverted fluorescence microscope (DM16000B, Germany) using UV/488 dual excitation and the fluorescence was measured at ~460 nm emission of Hoechst 33342 dye and >575 nm emission of propidium iodide at 630x magnification. At least 200 total target cells were counted and the numbers of each four cellular states were recorded and analyzed using fluorescence microscopy for quantification of apoptosis and necrosis. The experiment was conducted in triplicates. The percentages of apoptotic and necrotic cells were determined according to the following formula [27]: (1) Percentage of Apoptotic Cells (%) =(LA+DA)/ LN+LA+DN+DA×100,Percentage of Necrotic Cells (%) = DN/LN+LA+DN+DA×100, where LN are live target cells with normal nuclei (Hoechst 33342/PI: blue chromatin with organized structure), LA are live cells with apoptotic nuclei (Hoechst 33342/PI: bright blue chromatin that is highly condensed or fragmented), DN are dead cells with normal nuclei (Hoechst 33342/PI: pink chromatin with organized structure), and DA are dead cells with apoptotic nuclei (Hoechst 33342/PI: bright pink chromatin that is, highly condensed or fragmented).
# Ca Ski cells = experiment: Hoechst 33342/PI dual staining, quantification of apoptotic/necrotic cells, Ca Ski; assay type: cell-based, human; conditions: 48 h
# Procedure: as §1
SMILES,IC50 [2] [µg/mL],"Percentage of apoptotic cells (%) (HCT-116 cells; HCT-116, 12.5 μg/mL)","Percentage of necrotic cells (%) (HCT-116 cells; HCT-116, 12.5 μg/mL)","Percentage of apoptotic cells (%) (HCT-116 cells; HCT-116, 25 μg/mL)","Percentage of necrotic cells (%) (HCT-116 cells; HCT-116, 25 μg/mL)","Percentage of apoptotic cells (%) (HCT-116 cells; HCT-116, 40 μg/mL)","Percentage of necrotic cells (%) (HCT-116 cells; HCT-116, 40 μg/mL)","Percentage of apoptotic cells (%) (HCT-116 cells; HCT-116, 50 μg/mL)","Percentage of necrotic cells (%) (HCT-116 cells; HCT-116, 50 μg/mL)",Percentage of apoptotic cells (%) (Ca Ski cells; 12.5 μg/mL),Percentage of necrotic cells (%) (Ca Ski cells; 12.5 μg/mL),Percentage of apoptotic cells (%) (Ca Ski cells; 25 μg/mL),Percentage of necrotic cells (%) (Ca Ski cells; 25 μg/mL),Percentage of apoptotic cells (%) (Ca Ski cells; 40 μg/mL),Percentage of necrotic cells (%) (Ca Ski cells; 40 μg/mL),Percentage of apoptotic cells (%) (Ca Ski cells; 50 μg/mL),Percentage of necrotic cells (%) (Ca Ski cells; 50 μg/mL),other results
"C=C1CCC(C(C)C)=CC2C1CC[C@@]2(C)O (stereo partly drawn) [Alismol, alismol]",9 ± 0.9,48.83 ± 1.61^b %,19.50 ± 1.00^a %,55.33 ± 3.01^b %,26.00 ± 1.30^b %,21.33 ± 2.02^a %,67.67 ± 2.60^c %,19.00 ± 0.87^a %,76.67 ± 0.80^d %,8.83 ± 0.58^a %,5.83 ± 1.50^a %,53.67 ± 1.76^d %,14.00 ± 3.50^b %,41.67 ± 0.76^c %,45.33 ± 0.60^c %,32.67 ± 1.04^b %,60.33 ± 1.00^d %,"highest increment of caspase-3 activity ([1]; HCT-116, 40 μg/mL, 48 h): 45 folds; Percentage of apoptotic cells (%) (HCT-116 cells; HCT-116, 25 μg/mL, listed as alismol): 55.3 ± 3.0%; Percentage of necrotic cells (%) (HCT-116 cells; HCT-116, 50 μg/mL, listed as alismol): 76.7 ± 0.8%; Percentage of apoptotic cells (%) (Ca Ski cells; 25 μg/mL, listed as alismol): 53.7 ± 1.8%; Percentage of necrotic cells (%) (Ca Ski cells; 50 μg/mL, listed as alismol): 60.3 ± 1.0%"
"C=CC1(C)Cc2occ(C)c2C(=O)C1C(=C)C (stereo not drawn) [Curzerenone, curzerenone]",53 ± 1.5,45.00 ± 0.5^a %,9.00 ± 1.50^a %,50.00 ± 0.5^b %,15.33 ± 0.80^b %,46.5 ± 1.44^a %,25.00 ± 0.50^c %,49.17 ± 1.4^b %,28.00 ± 0.50^d %,4.82 ± 0.59^a %,3.50 ± 1.30^a %,7.89 ± 1.77^b %,5.57 ± 1.10^b %,39.67 ± 1.89^c %,11.83 ± 2.10^c %,54.67 ± 1.76^d %,16.33 ± 1.0^d %,"highest increment in caspase-3 activity compared to untreated cells ([1]; HCT-116, 48 h, concentration not given): 100 folds; Percentage of apoptotic cells (%) (HCT-116 cells; HCT-116, 25 μg/mL, listed as curzerenone): 50.0 ± 0.5%; Percentage of apoptotic cells (%) (Ca Ski cells; 50 μg/mL, listed as curzerenone): 54.7 ± 1.8%"
